# Test results taken from patent US20220125803A1, “METHODS FOR THE TREATMENT OF PERIMENOPAUSE AND MENOPAUSE” (Praxis Precision Medicines, Inc., priority 2019, published 2022).
# Key:
# [1] = test system: women that are perimenopausal with depression; test: Open label trial, vasomotor symptom diary (hot flushes); format: in vivo, human; conditions: one patient, 60 mg once a day, by Day 4 (baseline 9 per day)
# Method: (§1) The study is a two-week open label trial in women that are perimenopausal with depression during which patients were treated with an oral formulation of Compound 1 in adjunct to standard antidepressant treatment.
# (§2) Treatment Period: The treatment period was 14 days in duration. Participants were administered daily doses of Compound 1 (up to 120 mg qPM, including 15 mg once a day, 20 mg once a day, 25 mg once a day, 30 mg once a day, 35 mg once a day, 40 mg once a day, 45 mg once a day, 50 mg once a day, 55 mg once a day, 60 mg once a day, 65 mg once a day, 70 mg once a day, 75 mg once a day, 80 mg once a day, 85 mg once a day, 90 mg once a day, 95 mg once a day, 100 mg once a day, 105 mg once a day, 110 mg once a day, 115 mg once a day and 120 mg once a day) for 14 days.
# (§3) Secondary outcome measure was by the Clinical Global Impression (CGI), DSM-V MDD Anxious Distress Specifier, the Hamilton Anxiety Rating Scale (HAM-A), the Montgomery-Asberg Depression Rating Scale (MADRS), the Perimenopausal Depression Questionnaire (Meno-D), the Pittsburgh Sleep Quality Index (PSQI), the revised Sabbastberg Sexual Function Scale, the Symptoms of Depression Questionnaire (SDQ), and a vasomotor symptom diary.
# [2] = test system: women that are perimenopausal with depression; test: Open label trial, Hamilton Depression Rating Scale (HAM-D); format: in vivo, human; conditions: one patient
# Method: as §1
# as §2, with “Treatment Period: The treatment period was 14 days in duration.” left out
# The Primary efficacy outcome was measured by the Hamilton Depression Rating Scale (HAM-D). The HAM-D was administered at baseline (Day 1, predose), Day 4, Day 8, Day 15, Day 21 and Day 28.
# HAM-D Response was defined as a reduction from baseline of >50% in total HAM-D score. HAM-D remission was defined as a total HAM-D score of <7.
# [3] = Food Effect Cohort (Cohort 4), plasma pharmacokinetics fasted vs fed; conditions: Cohort 4, single 30 mg
# Method: (§4) The Day 1 dose was administered after a minimum of 10 hour fasting. No additional fluid intake was allowed until 1 hour after drug administration. A standard meal was given at least 4 hours post-dose. The Day 5 dose was administered following a high-fat, high calorie meal. Participants remained at the clinical site for a total of 8 days to complete PK sampling after the second dose.
# (§5) Pharmacokinetic variables (including but not limited to Cmax, Tmax and AUC(0-last)) were calculated using non-compartmental analysis.
# [4] = human, in vivo, 30 mg
# Method: as §4, §5
# [5] = test system: women that are perimenopausal with depression; test: Open label trial, Perimenopausal Depression Questionnaire (Meno-D); format: in vivo, human; conditions: one patient, 60 mg once a day
# Source text: The Meno-D is a perimenopausal depression rating scale consisting of 12 items, each items is scored on a 5-point scale (ranging from 0 to 4) (Kulkami J, et al., Development and validation of a new rating scale for perimenopausal depression-the Meno-D. Transl Psychiatry. 2018 Jun. 28; 8(1):123). The total score of the 12 items ranges from […] with higher scores indicating more severe perimenopausal depression. The MENO-D has five factors (or domains): Self (four items), Sexual (two items), Somatic (two items), Cognitive (two items) and Sleep (two items). MENO-D assesses the patient's self-esteem, sense of isolation, paranoid thinking, anxiety, interest in socialising, changes in libido and sexual activity, any decrease in energy, physical pain, changes in weight, subjective changes in memory and concentration, and increases in irritability and/or sleep disturbances.
# as §1, §2, §3
# [6] = Multiple escalating dose study, plasma pharmacokinetics, Cohorts 1-3; format: in vivo, human
# Method: Healthy subjects aged 18 to 55 years were treated with an oral suspension of Compound 1 to study the safety, tolerability, pharmacokinetics and pharmacodynamics of Compound 1 in healthy subjects.
# The study was a randomized, double-blind, placebo-controlled multiple escalating dose study comprised of 3 cohorts that each received an oral suspension. Each cohort consisted of two groups: one group treated with Compound 1 and another treated with placebo. In each cohort, the ratio of Compound 1-treated subjects to placebo-treated subjects was 3:1.
# The Compound 1-treated subjects of Cohort 1 were treated with 15.0 mg of Compound 1 once per day (QD). The Compound 1-treated subjects of Cohort 2 were treated with 30.0 mg of Compound 1 QD. The Compound 1-treated subjects of Cohort 3 were treated with 60.0 mg of Compound 1 QD.
# Patients in each cohort were treated with Compound 1 for 14 consecutive days, unless dosing was halted by the Safety Review Committee (SRC). The dosing of subjects in each of the cohorts was staggered with the decision to dose escalate based on SRC review of a minimum of 14 days of observation of safety and tolerability data and review of the available plasma PK data from the preceding cohort(s). Thus, dose escalation was predicated on tolerability of the prior cohorts.
# Compound 1 was administered under fasted conditions (no food or drink, except water, for at least 10 hours prior to dosing). Immediately after administration of Compound 1, the subject was be administered 240 mL water. No additional fluid intake was allowed until 1 hour after Compound 1 administration.
# Cohort 1 subjects received a single 15.0 mg dose of a Compound 1 suspension on the morning of Days 1-14. Cohort 2 subjects received a single 30.0 mg dose of a Compound 1 suspension on the morning of Days 1-14. Cohort 3 subjects received a single 60.0 mg dose of a Compound 1 suspension on the morning of Days 1-14. For all cohorts, the last treatment was administered on the morning of Day 14.
# Plasma samples were analyzed to determine Compound 1 concentrations using a validated assay method. Pharmacokinetic variables (including but not limited to Cmax, Tmax and AUC(0-last)) were calculated using non-compartmental analysis. PK parameters for Compound 1 were derived from the plasma concentration data using non-compartmental analysis with Phoenix™ WinNonlin® v 8.0 (Pharsight Corporation, USA).
# Blood (Cohorts 1-3): For each cohort, blood samples were collected on Days 1, 2, 3, 4, 5, 6 and 14 at the following time points: Day 1 at pre-dose (0 hour), 0.25, 0.5, 0.75, 1, 1.5, 2, 2.5, 3, 4, 6, 8, 12, 16 h post-dose; Day 2 at pre-dose (24 h), Day 3 at pre-dose (48 h), Day 4 at pre-dose (72 h), Day 5 at pre-dose (96 h), Day 6 at pre-dose (120 h); Day 14 at pre-dose 0.25, 0.5, 0.75, 1, 1.5, 2, 2.5, 3, 4, 6, 8, 12, 16, 24, 36, 48, and 72 hours. Trough level blood samples were collected on Days 2, 3, 4, 5, 6 and 14, prior to the morning dose administrations.
# Descriptive statistics were calculated for plasma and urine PK parameter and concentration data, and summarized by study day and time point. Arithmetic means, coefficient of variation (CV), standard deviation, median, minimum, and maximum values, and number of observations were calculated for all PK parameters and trough concentration data. Except for Tmax, the geometric mean, geometric standard deviation, and geometric CV were provided for all PK parameter and concentration data. […]
# [7] = test system: women that are perimenopausal with depression; test: Open label trial, safety/tolerability; format: in vivo, human; conditions: one patient, 60 mg dose once a day for 14 days
# Method: During the study, physical examination, vital signs, ECG, and clinical laboratory tests were conducted. The Modified Observers Assessment of Anesthesia and Sedation, (MOASS) and the Columbia Suicide were performed.
compound,measurement,setting,value
"COC[C@@]1(O)CC[C@@]2(C)[C@@H](CC[C@@H]3[C@@H]2CC[C@]2(C)[C@@H](C(=O)Cn4ccnc4)CC[C@@H]32)C1 [Compound 1, 3α-Hydroxy-3β-methoxymethyl-21-(1′-imidazolyl)-5α-pregnan-20-one]",decrease in frequency of hot flushes,[1],66%
same,HAM-D score,"[2]; 60 mg once a day for 14 days, Day 15 (baseline 28)",8
same,improvement in HAM-D score,"[2]; 60 mg once a day for 14 days, adjunct to fluoxetine, Day 8",48%
same,improvement in HAM-D score from baseline value,"[2]; 60 mg once a day for 14 days, adjunct to fluoxetine, Day 15",71%
same,HAM-D Remission criterion (total HAM-D score of <7),"[2]; 60 mg once a day, Day 15",nearly met the HAM-D Remission criterion
same,HAM-D Response criterion (reduction from baseline of >50%),"[2]; 60 mg once a day, Day 15",met the HAM-D Response criterion
same,"t1/2, fasted versus fed",[3],similar
same,"Tmax, fasting compared to fed conditions",[4],tendency for a shorter Tmax
same,improvement in MENO-D from baseline value,[5]; Day 8 (baseline 28),54%
same,MENO-D classification,[5]; Day 8 and Day 15,no longer met classification for perimenopausal depression requiring clinical attention
same,improvement in MENO-D factor Cognitive,[5]; Day 15,100%
same,improvement in MENO-D factor Self,[5]; Day 15,63%
same,improvement in MENO-D factor Sexual,[5]; Day 15,43%
same,improvement in MENO-D factor Sleep,[5]; Day 15,40%
same,improvement in MENO-D factor Somatic,[5]; Day 15,50%
same,improvement in MENO-D from baseline value,[5]; Day 15 (baseline 28),57%
same,accumulation factor of the dosing interval (ratio of AUCDay14/AUCDay1),"[6]; Cohort 1, 15.0 mg QD",approximately 1.25
same,AUCinf,"[6]; Cohort 1, 15.0 mg QD, Day 14 steady state, Geo Mean",0.600228 µg·h/mL
same,accumulation factor of the dosing interval (ratio of AUCDay14/AUCDay1),"[6]; Cohort 2, 30.0 mg QD",approximately 1.25
same,AUC0-tau,"[6]; human, in vivo, 15 mg",0.361762 µg·h/mL
same,Cmax,"[6]; human, in vivo, 15 mg",0.056016 µg/mL
same,adverse event reported,[7],mild epigastric pain after dosing
same,tolerability,[7],well-tolerated
"CNCCC(Oc1ccc(C(F)(F)F)cc1)c1ccccc1 (stereo not drawn) [fluoxetine, reference compound]",clinical response of depression symptoms (HAM-D score and clinical evaluation),"[2]; 15 mg daily taken for 8 months, before Compound 1",had not demonstrated a sufficient clinical response
